# According to US10323022B2, “Pyrrolidinyl urea, pyrrolidinyl thiourea and pyrrolidinyl guanidine compounds as TrkA kinase inhibitors” (Array BioPharma Inc., priority 2011, dated 2019):
# Target: TrkA (Homo sapiens (Human), UniProt P04629)
# Assay: TrkA Omnia Assay
# Assay type: biochemical
# Details: averaged IC50; 20 nM enzyme, 500 μM ATP, 10 μM peptide substrate
# How it was run: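 Recombinant TrkA (20 nM) preincubated 10 min at ambient temperature with compound, then Omnia Tyr Peptide #4 (10 μM) and ATP (500 μM) added in 25 mM MOPS pH 7.5, 5 mM MgCl2, 0.005% Triton X-100. Fluorescence (ex 360/em 485 nm) followed continuously for 70 min; IC50 from initial rates by 4- or 5-parameter logistic fit.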
# TrkA, sequence (P04629 33-796): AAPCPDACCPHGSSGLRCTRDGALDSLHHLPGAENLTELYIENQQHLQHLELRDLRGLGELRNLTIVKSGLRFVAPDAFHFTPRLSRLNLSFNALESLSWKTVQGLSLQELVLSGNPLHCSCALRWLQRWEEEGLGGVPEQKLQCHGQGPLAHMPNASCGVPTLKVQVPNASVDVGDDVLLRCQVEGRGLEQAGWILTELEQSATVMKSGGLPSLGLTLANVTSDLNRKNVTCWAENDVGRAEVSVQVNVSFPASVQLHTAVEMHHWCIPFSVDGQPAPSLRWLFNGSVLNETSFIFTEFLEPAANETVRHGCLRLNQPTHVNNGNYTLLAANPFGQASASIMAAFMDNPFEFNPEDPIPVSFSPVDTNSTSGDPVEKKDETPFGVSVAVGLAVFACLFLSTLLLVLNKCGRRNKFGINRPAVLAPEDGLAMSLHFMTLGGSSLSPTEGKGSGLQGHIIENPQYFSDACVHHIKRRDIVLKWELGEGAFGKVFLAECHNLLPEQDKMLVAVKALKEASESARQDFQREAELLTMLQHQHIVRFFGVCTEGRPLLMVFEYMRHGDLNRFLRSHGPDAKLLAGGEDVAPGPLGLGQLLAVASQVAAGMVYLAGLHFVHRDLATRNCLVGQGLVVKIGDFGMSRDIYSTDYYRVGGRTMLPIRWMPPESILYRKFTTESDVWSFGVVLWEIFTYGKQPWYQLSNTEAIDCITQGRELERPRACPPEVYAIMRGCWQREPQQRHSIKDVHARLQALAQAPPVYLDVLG
row,SMILES,IC50 [µM]
1,"COCCN1C[C@@H](NC(=O)Nc2c3c(nn2-c2ccccc2)CCC3)[C@H](c2cncc(F)c2)C1 (relative stereo) [Example 341, 1-(trans-4-(5-fluoropyridin-3-yl)-1-(2-methoxyethyl)pyrrolidin-3-yl)-3-(2-phenyl-2,4,5,6-tetrahydrocyclopenta[c]pyrazol-3-yl)urea]",0.1 to 1
2,"COCCN1C[C@@H](NC(=O)Nc2c3c(nn2-c2ccccc2)CCC3)[C@H](c2nccs2)C1 (stereo in doubt) [Example 49, 1-(1-(2-methoxyethyl)-4-(thiazol-2-yl)pyrrolidin-3-yl)-3-(2-phenyl-2,4,5,6-tetrahydrocyclopenta[c]pyrazol-3-yl)urea]",1 to 10
3,"COCC(C(=O)OC)N1CC(NC(=O)Nc2c3c(nn2-c2ccccc2)CCC3)[C@H](c2ccccc2)C1 (stereo in doubt) [Example 258, methyl 3-methoxy-2-((trans)-3-phenyl-4-(3-(2-phenyl-2,4,5,6-tetrahydrocyclopenta[c]pyrazol-3-yl)ureido)pyrrolidin-1-yl)propanoate]",< 0.1
4,"COCCN1C[C@@H](NC(=O)Nc2cc(C(C)(C)C)nn2-c2ccccc2)[C@H](c2ccccc2)C1 [Example 1, 1-(3-tert-butyl-1-phenyl-H-pyrazol-5-yl)-3-(trans-1-(2-methoxyethyl)-4-phenylpyrrolidin-3-yl)urea]",< 0.1
5,"COCCN1C[C@@H](NC(=O)Nc2cc(C(C)(C)C)nn2C2CCOCC2)[C@H](c2ccccc2)C1 [Example 34, 1-(3-tert-butyl-1-(tetrahyro-2H-pyran-4-yl)-1H-pyrazol-5-yl)-3-(trans-1-(2-methoxyethyl)-4-phenylpyrrolidin-3-yl)urea]",1 to 10
6,"COCCN1C[C@@H](NC(=O)Nc2c3c(nn2-c2ccccc2)C(C)(C)CC3)[C@H](c2ccccc2)C1 [Example 36, 1-(6,6-dimethyl-2-phenyl-2,4,5,6-tetrahydro-yclopenta [c]pyrazol-3-yl)-3-(trans-1-(2-methoxyethyl)-4-phenyl-pyrrolidin-3-yl)urea]",< 0.1
7,"COCCN1CC(c2sc(C)nc2C)[C@H](NC(=O)Nc2c3c(nn2-c2ccccc2)CCC3)C1 (stereo partly drawn) [Example 45, 1-((3,4-trans)-4-(2,4-dimethylthiazol-5-yl)-1-(2-methoxyethyl)pyrrolidin-3-yl)-3-(2-phenyl-2,4,5,6-tetrahydrocyclopenta[c]pyrazol-3-yl)urea]",1 to 10
8,"COCCN1CC(NC(=O)Nc2c3c(nn2-c2ccccc2)CCC3)[C@H](c2cccc(OC)c2)C1 (stereo partly drawn) [Example 48, 1-((3,4-trans)-1-(2-methoxyethyl)-4-(3-methoxyphenyl)pyrrolidin-3-yl)-3-(2-phenyl-2,4,5,6-tetrahydrocyclopenta[c]pyrazol-3-yl)urea]",0.1 to 1
9,"COCCN1C[C@@H](NC(=O)Nc2cc(C(F)(F)F)nn2-c2ccccc2)[C@H](c2ccccc2)C1 [Example 53, 1-((3S,4R)-1-(2-methoxyethyl)-4-phenylpyrrolidin-3-yl)-3-(1-phenyl-3-(trifluoromethyl)-1H-pyrazol-5-yl)urea]",< 0.1
10,"COCCN1C[C@@H](NC(=O)Nc2c(C)c(-c3ccccc3)nn2C)[C@H](c2ccccc2)C1 [Example 54, 1-(1,4-dimethyl-3-phenyl-1H-pyrazol-5-yl)-3-((3S,4R)-1-(2-methoxy-ethyl)-4-phenylpyrrolidin-3-yl)urea]",1 to 10
11,"COCCN1C[C@@H](NC(=O)Nc2cc(C3CC3)nn2C)[C@H](c2cc(F)cc(F)c2)C1 [Example 55, 1-(3-cyclopropyl-1-methyl-1H-pyrazol-5-yl)-3-((3S,4R)-4-(3,5-difluorophenyl)-1-(2-methoxyethyl)pyrrolidin-3-yl)urea]",0.1 to 1

# Now from value to compound:
row,IC50 [µM],SMILES
1,< 0.1,"COCCN1C[C@@H](NC(=O)Nc2c(C)c(C)nn2-c2ccccc2)[C@H](c2cncc(Cl)c2)C1 (relative stereo) [Example 343, 1-(trans-4-(5-chloropyridin-3-yl)-1-(2-methoxyethyl)pyrrolidin-3-yl)-3-(3,4-dimethyl-1-phenyl-1H-pyrazol-5-yl)urea]"
2,< 0.1,"COCCN1C[C@@H](NC(=O)Nc2c(C)c(-c3ccccc3)nn2-c2ccccc2)[C@H](c2cncc(F)c2)C1 (relative stereo) [Example 344, 1-(trans-4-(5-fluoropyridin-3-yl)-1-(2-methoxyethyl)pyrrolidin-3-yl)-3-(4-methyl-1,3-diphenyl-1H-pyrazol-5-yl)urea]"
3,< 0.1,"COCCN1C[C@@H](NC(=O)Nc2c(Br)c(-c3ccccc3)nn2-c2ccccc2)[C@H](c2cncc(F)c2)C1 (relative stereo) [Example 435, 1-(4-bromo-1,3-diphenyl-1H-pyrazol-5-yl)-3-(trans-4-(5-fluoropyridin-3-yl)-1-(2-methoxyethyl)pyrrolidin-3-yl)urea]"
4,< 0.1,"COCCN1C[C@@H](NC(=O)Nc2c(Cl)c(-c3ccccc3)nn2-c2ccccc2)[C@H](c2cncc(F)c2)C1 (relative stereo) [Example 436, 1-(4-chloro-1,3-diphenyl-1H-pyrazol-5-yl)-3-(trans-4-(5-fluoropyridin-3-yl)-1-(2-methoxyethyl)pyrrolidin-3-yl)urea]"
5,< 0.1,"COCCN1C[C@@H](NC(=O)Nc2c(C)c(=O)[nH]n2-c2ccccc2)[C@H](c2ccc(Cl)c(F)c2)C1 (relative stereo) [Example 609, 1-((trans)-4-(4-chloro-3-fluorophenyl)-1-(2-methoxyethyl)pyrrolidin-3-yl)-3-(4-methyl-5-oxo-2-phenyl-2,5-dihydro-1H-pyrazol-3-yl)urea]"
6,< 0.1,"COCCN1C[C@@H](NC(=O)Nc2c(C)c(=O)[nH]n2-c2ccccc2)[C@H](c2ccc(F)c(Cl)c2)C1 (relative stereo) [Example 610, 1-((trans)-4-(3-chloro-4-fluorophenyl)-1-(2-methoxyethyl)pyrrolidin-3-yl)-3-(4-methyl-5-oxo-2-phenyl-2,5-dihydro-1H-pyrazol-3-yl)urea]"
7,< 0.1,"COCCN1C[C@@H](NC(=O)Nc2c(C)c(=O)[nH]n2-c2ccccc2)[C@H](c2cc(F)cc(Cl)c2)C1 (relative stereo) [Example 614, 1-((trans)-4-(3-chloro-5-fluorophenyl)-1-(2-methoxyethyl)pyrrolidin-3-yl)-3-(4-methyl-5-oxo-2-phenyl-2,5-dihydro-1H-pyrazol-3-yl)urea]"
8,< 0.1,"COCCN1C[C@@H](NC(=O)Nc2c(C(N)=O)c(C)nn2-c2ccccc2)[C@H](c2ccc(F)c(Cl)c2)C1 (relative stereo) [Example 623, 5-(3-((trans)-4-(3-chloro-4-fluorophenyl)-1-(2-methoxyethyl)pyrrolidin-3-yl)ureido)-3-methyl-1-phenyl-1H-pyrazole-4-carboxamide]"
9,< 0.1,"COCCN1C[C@@H](NC(=O)Nc2c(C(N)=O)c(C)nn2-c2ccccc2)[C@H](c2ccc(Cl)c(F)c2)C1 (relative stereo) [Example 624, 5-(3-((trans)-4-(4-chloro-3-fluorophenyl)-1-(2-methoxyethyl)pyrrolidin-3-yl)ureido)-3-methyl-1-phenyl-1H-pyrazole-4-carboxamide]"
10,< 0.1,"COCCN1C[C@@H](NC(=O)Nc2c(C(N)=O)c(C)nn2-c2ccccc2)[C@H](c2cc(F)cc(Cl)c2)C1 (relative stereo) [Example 625, 5-(3-((trans)-4-(3-chloro-5-fluorophenyl)-1-(2-methoxyethyl)pyrrolidin-3-yl)ureido)-3-methyl-1-phenyl-1H-pyrazole-4-carboxamide]"
